Data from patent US20070166246A1, “Composition for oral cavity” (TOYO SHINYAKU CO., LTD., priority 2004, published 2007).

Tested on: blood flow in the lower gingiva
Assay: Blood flow improvement in the gingiva using tablets (Example 3)
Type: in vivo, human
Details: gradually dissolved in the mouth (two tablets, about 2 mg extract; vitamin E 100 mg alone), four volunteers, mean ± standard deviation
Procedure: Next, using the tablets, an experiment was conducted with respect to the effect of improving blood flow in a tissue (the gingiva) of the mouth through the cooperation of four of the five volunteers in Example 1. More specifically, first, the volunteers put two tablets in their mouths, and ingested the tablets into the body while gradually dissolving the tablets in their mouths. Next, at predetermined times (five minutes and 15 minutes) after completion of ingestion of the tablets, the blood flow in the lower gingiva was measured with a blood flow meter. It should be noted that the blood flow meter and others that were used herein are the same as those in Example 1. Moreover, as an example of a substance that improves blood flow, vitamin E (100 mg) alone was ingested while being gradually dissolved in the mouth, and the blood flow was also measured. Furthermore, the tablets containing the pine bark extract (two tablets) were ingested by being swallowed at one gulp with 10 mL of distilled water, instead of being gradually dissolved in the mouth, and the blood flow was also measured.
The results of the blood flow measurement are shown as relative values, taking the measurement results of the blood flow measurement performed before putting the tablets in the mouth as 100. […]

## vitamin E
5 min after ingestion
  blood flow in the lower gingiva, relative value (before putting the tablets in the mouth = 100): 116.99 ± 14.39
15 min after ingestion
  blood flow in the lower gingiva, relative value (before putting the tablets in the mouth = 100): 105.63 ± 16.16
